Results on 7 compounds are retold here after ChEMBL document CHEMBL1770098, “Pyridine-derived thiosemicarbazones and their tin(IV) complexes with antifungal activity against Candida spp” (2011).

Values after ≈ are worked out from the molar mass of the structure shown.

What all share (assay type): functional
The subject of assay [1] is Pichia kudriavzevii. In words: Antifungal activity against Candida krusei ATCC 200298 after 24 hrs. To be noted: ATCC 200298, 24 h.
In assay [2] the test system is Candida albicans. The experiment in a line: Antifungal activity against Candida albicans ATCC 18804 after 24 hrs. The note with it: ATCC 18804, 24 h.
Assay [3] relates to Nakaseomyces glabratus. In words: Antifungal activity against Candida glabrata ATCC 90030 after 24 hrs. The note with it: ATCC 90030, 24 h.
Assay [4] has as its system Candida parapsilosis. In words: Antifungal activity against Candida parapsilosis […] after 24 hrs. To be noted: Lodderomyces parapsilosis.

For the compound `C/C(=N\NC(=S)Nc1ccccc1[N+](=O)[O-])c1ccccn1`, the MIC in assay [1], in assay [2], in assay [3] and in assay [4] was 6.34 µM (≈ 2 µg/mL) in each case.

As for `OC(Cn1cncn1)(Cn1cncn1)c1ccc(F)cc1F` [FLUCONAZOLE], the MIC was 104 µM (≈ 32 µg/mL) in assay [1], 6.53 µM (≈ 2 µg/mL) in assay [2], 6.53 µM (≈ 2 µg/mL) in assay [3] and 6.53 µM (≈ 2 µg/mL) in assay [4].

With `C/C(=N\NC(=S)Nc1ccccc1Cl)c1ccccn1`, the MIC in assay [1] came out at 13.1 µM (≈ 4 µg/mL); in assay [2], 13.1 µM (≈ 4 µg/mL); in assay [3], 13.1 µM (≈ 4 µg/mL); in assay [4], 26.2 µM (≈ 8 µg/mL).

Consider `Fc1ccccc1NC(=S)N/N=C(\c1ccccc1)c1ccccn1`, for which the minimal inhibitory concentration (MIC) in assay [1] came to 45.7 µM (≈ 16 µg/mL); in assay [2], 45.7 µM (≈ 16 µg/mL); in assay [3], 11.4 µM (≈ 4 µg/mL); in assay [4], 45.7 µM (≈ 16 µg/mL).

Turning to `C/C(=N\NC(=S)Nc1ccccc1F)c1ccccn1`, the minimal inhibitory concentration (MIC) in assay [1] was 13.9 µM (≈ 4 µg/mL); in assay [2], 13.9 µM (≈ 4 µg/mL); in assay [3] it was 6.94 µM (≈ 2 µg/mL); in assay [4], 27.7 µM (≈ 8 µg/mL).

For the compound `O=[N+]([O-])c1ccccc1NC(=S)N/N=C(\c1ccccc1)c1ccccn1`, the minimal inhibitory concentration (MIC) stood at 21.2 µM (≈ 8 µg/mL) in assay [1], 21.2 µM (≈ 8 µg/mL) in assay [2], 21.2 µM (≈ 8 µg/mL) in assay [3] and 42.4 µM (≈ 16 µg/mL) in assay [4].

As for `S=C(N/N=C(\c1ccccc1)c1ccccn1)Nc1ccccc1Cl`, the minimum inhibitory concentration (MIC) in assay [1] was determined as 21.8 µM (≈ 8 µg/mL); in assay [2], 21.8 µM (≈ 8 µg/mL); in assay [3], 21.8 µM (≈ 8 µg/mL); in assay [4] it was 43.6 µM (≈ 16 µg/mL).

The MIC is the least concentration at which growth counts as inhibited. Higher therefore signals a less susceptible organism.
